In patent US20070099877A1, “N-aryl-thienopyrimidin-4-amines and analogs as activators of caspases and inducers of apoptosis and the use thereof” (Cytovia, Inc., priority 2005, published 2007) one finds EC50 data, which are given here for 26 molecules.

What is called EC50 is the concentration that produces a half-maximal response.

Assay type in all cases: cell-based
For assay [1], the system named is human lung cancer cell line H1299. Description: Caspase cascade activation in H1299 cells. The following applies: NCI-H1299, 24 h, read-out: Caspase activation Potency EC50 H1299 (24 h). The procedure: (§1) Human breast cancer cell line T-47D, human lung cancer cell line H1299, human hepatocellular carcinoma cell line SNU398, human colon carcinoma cell line HCT116 were grown according to media component mixtures designated by American Type Culture Collection+10% FCS (Invitrogen Corporation), in a 5% CO2-95% humidity incubator at 37° C. T-47D and H1299 cells were maintained at a cell density between 50 and 80% confluency at a cell density of 0.1 to 0.6×10^6 cells/mL. Cells were harvested at 600×g and resuspended at 0.65×10^6 cells/mL into appropriate media+10% FCS. An aliquot of 22.5 μL of cells was added to a well of a 384-well microtiter plate containing 2.5 μL of a 10% DMSO in RPMI-1640 media solution containing 0.16 to 100 μM of N-(2,5-dimethoxyphenyl)-2-methylthieno[3,2-d]pyrimidin-4-amine or other test compound (0.016 to 10 μM final). An aliquot of 22.5 μL of cells was added to a well of a 384-well microtiter plate containing 2.5 μL of a 10% DMSO in RPMI-1640 media solution without test compound as the control sample. The samples were mixed by agitation and then incubated at 37° C. for 24 h or 48 h in a 5% CO2-95% humidity incubator. After incubation, the samples were removed from the incubator and 25 μL of a solution containing 14 μM of N-(Ac-DEVD)-N′-ethoxycarbonyl-R110 (SEQ ID NO.:1) fluorogenic substrate (Cytovia, Inc.; WO99/18856), 20% sucrose (Sigma), 20 mM DTT (Sigma), 200 mM NaCl (Sigma), 40 mM Na PIPES buffer pH 7.2 (Sigma), and 500 μg/mL lysolecithin (Calbiochem) was added. The samples were mixed by agitation and incubated at room temperature. Using a fluorescent plate reader (Model SPECTRAfluor Plus, Tecan), an initial reading (T=0) was made approximately 1-2 min after addition of the substrate solution, employing excitation at 485 nm and emission at 530 nm, to determine the background fluorescence of the control sample. After the 3 h incubation, the samples were read for fluorescence as above (T=3 h).
(§2) The Relative Fluorescence Unit values (RFU) were used to calculate the sample readings as follows: RFU(T=3h)−Control RFU(T=O)=Net RFU(T=3h)
(§3) The activity of caspase cascade activation was determined by the ratio of the net RFU value for N-(2,5-dimethoxyphenyl)-2-methylthieno[3,2-d]pyrimidin-4-amine or other test compound to that of control samples. The EC50 (nM) was determined by a sigmoidal dose-response calculation (Prism 3.0, GraphPad Software Inc.).

Assay [2] deals with human hepatocellular carcinoma cell line SNU398. Put plainly: Caspase cascade activation in SNU398 cells. The following applies: Homo sapiens, SNU-398, 48 h, read-out: Caspase activation Potency EC50 SNU398 (48 h). The procedure:
as §1, §2, §3

Assay [3] deals with human breast cancer cell line T-47D. Description: Caspase cascade activation (DEVD-R110 fluorogenic substrate) in T-47D cells. The following applies: Homo sapiens, T47D. As for the experimental part:
as §1, §2, §3

For assay [4], the system named is human colon carcinoma cell line HCT116. Put plainly: Caspase cascade activation in HCT116 cells. The following applies: Homo sapiens, HCT-116, 48 h, read-out: Caspase activation Potency EC50 HCT116 (48 h). As for the experimental part:
as §1, §2, §3

Where [5] appears, read: 24 h, T47D cells, 24 h, read-out: Caspase activation Potency EC50 T47D (24 h).
The mark [6] stands for this setting: 48 h, T-47D cells, 48 h, read-out: Caspase activation Potency EC50 T-47D (48 h).

Where a name gives a salt, the structure may show the parent alone. Read-outs that look alike come from different tables or passages of the source.

As for `COc1ccc(Nc2nc(C)nc3scc(C)c23)cc1` [Example 13, N-(4-Methoxyphenyl)-2,5-dimethylthieno[2,3-d]pyrimidin-4-amine hydrochloride], the EC50 in assay [1], in assay [2], in assay [3] (setting [5]), in assay [3] (setting [6]) and in assay [4] was above 10 µM throughout.
Turning to `COc1cc(Nc2ncnc3cc(Br)sc23)cc(N(C)C)c1` [Example 64, 6-Bromo-N-(3-dimethylamino-5-methoxyphenyl)thieno[3,2-d]pyrimidin-4-amine], the EC50 in assay [2] is 0.565 µM; in assay [3] (setting [6]) it was 0.131 µM; in assay [4] it was 1.28 µM.
In the case of `COc1cc(Nc2nc(C)nc3sccc23)cc(OC)c1` [Example 55, N-(3,5-Dimethoxyphenyl)-2-methylthieno[2,3-d]pyrimidin-4-amine], the EC50 in assay [2] is above 10 µM; in assay [3] (setting [5]) it was 0.112 µM; in assay [3] (setting [6]), 0.099 µM; in assay [4], above 10 µM.
With `COc1ccc(OC)c(Nc2nc(C)nc3scc(C)c23)c1` [Example 7, N-(2,5-Dimethoxyphenyl)-2,5-dimethylthieno[2,3-d]pyrimidin-4-amine hydrochloride], the EC50 in assay [1], in assay [2], in assay [3] (setting [5]), in assay [3] (setting [6]) and in assay [4] was above 10 µM in each case.
Turning to `COc1ccc(OC)c(Nc2ncnc3sc(C)cc23)c1` [Example 28, N-(2,5-Dimethoxyphenyl)-6-methylthieno[2,3-d]pyrimidin-4-amine hydrochloride], the EC50 in assay [1] is above 10 µM; in assay [2], above 10 µM; in assay [3] (setting [5]) it was 0.422 µM; in assay [3] (setting [6]) it was 0.542 µM; in assay [4], above 10 µM.
`COc1c(Br)c(N)c(Br)c(Nc2ncnc3ccsc23)c1Br` [Example 73, N-(3-Amino-2,4,6-tribromo-5-methoxyphenyl)thieno[3,2-d]pyrimidin-4-amine]: the figures for the EC50 in assay [2], in assay [3] (setting [6]) and in assay [4] were 0.605 µM, 0.486 µM and 1.67 µM, respectively.
For `Cc1cc(C)cc(Nc2ncnc3ccsc23)c1` [Example 57, N-(3,5-Dimethylphenyl)thieno[3,2-d]pyrimidin-4-amine] the same measures were above 10 µM, above 10 µM and above 10 µM.
Turning to `COc1cc(Nc2ncnc3sc(C)c(C)c23)cc(OC)c1` [Example 47, N-(3,5-Dimethoxyphenyl)-5,6-dimethylthieno[2,3-d]pyrimidin-4-amine], the EC50 in assay [2], in assay [3] (setting [6]) and in assay [4] was above 10 µM throughout.
As to `COc1cc(Nc2ncnc3scc(C)c23)cc(OC)c1` [Example 50, N-(3,5-Dimethoxyphenyl)-5-methylthieno[2,3-d]pyrimidin-4-amine], the EC50 is at least 10 µM in assay [2], 4.36 µM in assay [3] (setting [6]) and at least 10 µM in assay [4].
In the case of `COc1cc(Nc2ncnc3sc(C)cc23)cc(OC)c1` [Example 48, N-(3,5-Dimethoxyphenyl)-6-methylthieno[2,3-d]pyrimidin-4-amine], the EC50 in assay [2] was above 10 µM; in assay [3] (setting [6]), 1.99 µM; in assay [4], above 10 µM.
Regarding `COc1cc(Nc2ncnc3sc(-c4ccccc4)c(C)c23)cc(OC)c1` [Example 49, N-(3,5-Dimethoxyphenyl)-5-methyl-6-phenylthieno[2,3-d]pyrimidin-4-amine], the EC50 in assay [2], in assay [3] (setting [6]) and in assay [4] was above 10 µM each time.
Turning to `COc1cc(Nc2ncnc3cc(I)sc23)cc(OC)c1` [Example 53, N-(3,5-Dimethoxyphenyl)-6-iodothieno[3,2-d]pyrimidin-4-amine], the EC50 in assay [2] was found to be 0.868 µM; in assay [3] (setting [6]) it was 0.723 µM; in assay [4] it was 2.45 µM.
Turning to `COc1cc(Nc2nc(C)nc3ccsc23)cc(N(C)C)c1` [Example 63, N-(3-Dimethylamino-5-methoxyphenyl)-2-methylthieno[3,2-d]pyrimidin-4-amine], the EC50 in assay [2] is 0.706 µM; in assay [3] (setting [6]), 0.32 µM; in assay [4], 1.26 µM.
The matching figures for `COc1cc(Nc2ncnc3sccc23)cc(OC)c1` [Example 45, N-(3,5-Dimethoxyphenyl)thieno[2,3-d]pyrimidin-4-amine]: above 10 µM, 0.087 µM and above 10 µM.
As to `CS(=O)(=O)c1cc(Nc2ncnc3ccsc23)cc(S(C)(=O)=O)c1` [Example 60, N-(3,5-Bis(methylsulfonyl)phenyl)thieno[3,2-d]pyrimidin-4-amine], the EC50 in assay [2], in assay [3] (setting [6]) and in assay [4] was above 10 µM each time.
Consider `COc1cc(N)cc(Nc2ncnc3ccsc23)c1` [Example 68, N-(3-Amino-5-methoxyphenyl)thieno[3,2-d]pyrimidin-4-amine], for which the values for the EC50 in assay [2], in assay [3] (setting [6]) and in assay [4] were 5.08 µM, 2.95 µM and above 10 µM, respectively.
Turning to `COc1cc(Nc2ncnc3ccsc23)cc(C(F)(F)F)c1` [Example 56, N-(5-Methoxy-3-trifluoromethylphenyl)thieno[3,2-d]pyrimidin-4-amine], the figures for the EC50 in assay [2], in assay [3] (setting [6]) and in assay [4] were 1.03 µM, 1.84 µM and 2.61 µM, respectively.
As to `COc1cc(Nc2ncnc3cc(Br)sc23)cc(OC)c1` [Example 67, 6-Bromo-N-(3,5-dimethoxyphenyl)thieno[3,2-d]pyrimidin-4-amine], the EC50 in assay [2] is 4.95 µM; in assay [3] (setting [6]), 0.227 µM; in assay [4] it was above 10 µM.
For the molecule `COc1cc(Nc2nc(C)nc3scc(C)c23)cc(OC)c1` [Example 51, N-(3,5-Dimethoxyphenyl)-2,5-dimethylthieno[2,3-d]pyrimidin-4-amine], the EC50 in assay [2] was 2.64 µM; in assay [3] (setting [6]) it was 2.49 µM; in assay [4], 3.7 µM.
Consider `COc1cc(Nc2ncnc3ccsc23)cc([N+](=O)[O-])c1` [Example 59, N-(3-Methoxy-5-nitrophenyl)thieno[3,2-d]pyrimidin-4-amine], for which the values for the EC50 in assay [2], in assay [3] (setting [6]) and in assay [4] were 3.25 µM, above 10 µM and above 10 µM, respectively.
Turning to `COc1cc(Nc2nc(C)nc3ccsc23)cc(-n2cnnn2)c1` [Example 65, N-(3-Methoxy-5-(1H-tetrazol-1-yl)phenyl)-2-methylthieno[3,2-d]pyrimidin-4-amine], the 50% effective concentration (EC50) was determined as 0.354 µM in assay [2], 0.457 µM in assay [3] (setting [6]) and 0.62 µM in assay [4].
The matching figures for `COc1cc(Nc2ncnc3c(C)csc23)cc(OC)c1` [Example 46, N-(3,5-Dimethoxyphenyl)-7-methylthieno[3,2-d]pyrimidin-4-amine]: above 10 µM, 1.52 µM and above 10 µM.
On to `COc1cc(O)cc(Nc2ncnc3ccsc23)c1` [Example 44, N-(3-Hydroxy-5-methoxyphenyl)thieno[3,2-d]pyrimidin-4-amine], for which the EC50 in assay [1] turned out to be 2.68 µM; in assay [3] (setting [5]) it was 1.1 µM.
For `COC(=O)c1cc(Nc2ncnc3ccsc23)cc(C(=O)OC)c1` [Example 58, Dimethyl 5-(thieno[3,2-d]pyrimidin-4-ylamino)benzene-1,3-dioate], the EC50 was 0.168 µM in assay [2], above 10 µM in assay [3] (setting [5]), 0.565 µM in assay [3] (setting [6]) and 0.347 µM in assay [4].
Regarding `COc1cc(Nc2nc(C)nc3cc(Br)sc23)cc(OC)c1` [Example 52, N-(3,5-Dimethoxyphenyl)-6-bromo-2-methylthieno[3,2-d]pyrimidin-4-amine], the EC50 in assay [2] is 0.468 µM; in assay [3] (setting [5]), 0.032 µM; in assay [3] (setting [6]), 0.033 µM; in assay [4] it was 0.082 µM.
Take `COc1cc(Nc2nc(C)nc3cc(Br)sc23)cc(N(C)C)c1` [Example 66, 6-Bromo-N-(3-dimethylamino-5-methoxyphenyl)-2-methylthieno[3,2-d]pyrimidin-4-amine]: the results for the EC50 in assay [2], in assay [3] (setting [6]) and in assay [4] were 0.297 µM, 0.065 µM and 0.498 µM, respectively.
